Reference: US20240246960A1 (adMare Therapeutics Society, priority 2021, published 2024)
Read-outs that look alike come from different tables or passages of the source.

Experiments:
[1] = system: pH2AX induction in HCT116 ATM−/− multicellular tumour spheroids; test: Prodrug radiation sensitization in multicellular tumour spheroids (pH2AX induction following radiation); assay type: cell-based; conditions: Homo sapiens, HCT-116, 20 Gy
Protocol: Prodrug compounds were assayed to determine their potency in 3D multicellular spheroids in media maintained under 20% vs […]. Multicellular tumour spheroids were grown to approximately 0.5 mm in diameter and irradiated with 20 Gy in combination with inhibitor test compounds to determine their potency using HCT116 and FaDu cell lines. Experiments were carried out in 96 well plates containing 0.7 mls of MEM media containing 10% FBS and 10 mM glucose under […] at 37° C. Following dilution of compounds 1:1000 from DMSO stocks, compounds were serially diluted from 10 μM down to 3.5 nM and 5-10 spheroids added. 96 well plates were constantly stirred to avoid spheroids settling during the course of the experiment. Endpoints were pDNA-PK (ser 2056) or pH2AX (ser 139) status in spheroid cryosections taken 1 or 2 hours following radiation and fixed immediately in formalin. Using tumour cell lines deficient in ATM improved the assay signal to noise and gH2AX readout. Using this assay prodrug activity could be compared in the more oxygenated outer spheroid layers versus less oxygenated hypoxic central cell layers.

[2] = Microsomal stability assay, human liver microsomes; assay type: in vitro ADME; conditions: for Microsomal Stability (human) % rem. 60 min: Example 11; for microsomal CLint at 0.1 uM: both sexes, human, liver microsomes, pH 7.4, Example 11
Protocol: Samples were then mixed and centrifuged. Supernatants were used for HPLC-MS/MS analysis. […] Peak areas corresponding to the test compound were recorded.

[3] = biological target: T1, DNA-PK phosphorylation at Serine 2056 (Homo sapiens, UniProt P78527); test: Cellular Assay for Inhibition of DNA-PK Phosphorylation at Serine 2056 (FaDu cells, neocarzinostatin, sandwich ELISA); assay type: cell-based; conditions: Table 2
T1 construct: host or cells: FaDu
Procedure, shortened: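 FaDu cells were pretreated with compound (0.3% DMSO) for 1 h, then exposed to neocarzinostatin at 1 μg/mL final for 2 h to induce DSBs. Protein-normalized lysates were assayed by MSD sandwich ELISA for total and pSer2056 DNA-PK. IC50 came from variable-slope fits of % inhibition relative to DMSO and NCS controls.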

[4] = Microsomal stability assay, mouse liver microsomes; conditions: Example 11; for microsomal CLint at 0.1 uM: male, CD-1, mouse, liver microsomes, pH 7.4, Microsomal Stability Mouse Clint
FaDu cell line = test: Prodrug activation in hypoxic stirred tumour cell suspensions; assay type: in vitro ADME; conditions: 10 μM, 4 hours
Protocol: Prodrug compounds were assayed to determine their stability and rate of activation in stirred cell suspensions under 0.2 vs 5% oxygen. Compounds were diluted 1:1000 from DMSO stocks to 10 μM final concentration in tumour cell suspensions (1% by cell volume) in MEM media containing 10% FBS, 10 mM glucose & 3.7 g/L sodium bicarbonate. Cell lines assayed included A253, A549, Detroit562, FaDu, HCT116, HEP G2, HT29, SCC25, SCC9, SiHa & TC32. Compounds and cells were then incubated for 4 hours under constant mixing at 37° C. under 5% CO2 and either 0.2 or 5% O2. Following the incubation period cellular activation of the compounds was assayed via MeOH extraction and HPLC quantification.

DNA-PK = biological target: T2, DNA-PK (Homo sapiens, UniProt P78527); test: DNA-PK Assay for Biochemical Enzymatic Inhibition (ADP Glo Kinase assay); conditions: Table 2
T2 construct: purchased Invitrogen PR9107A
Procedure, shortened: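 Human DNA-PK (25 ng) preincubated 15 min with compounds (ten three-fold dilutions) in HEPES pH 7.5, MgCl2, KCl, calf thymus DNA buffer, then substrate 434.4 μM and ATP 64.4 μM (final) for 60 min at room temperature. ADP-Glo luminescence; percent inhibition fitted by four-parameter regression for IC50.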

[5] = 5% O2, inner layers, read-out: Prodrug 5% O2 Inner layers EC50
[6] = 5% O2, outer layers, read-out: Prodrug 5% O2 Outer layers EC50
[7] = 20% O2, outer layers, read-out: Prodrug 20% O2 Outer layers EC50

Microsomal Stability (human) % rem. 60 min [2]	microsomal CLint at 0.1 uM [2]	IC50 [3]	Microsomal Stability (mouse) % rem. 60 min [4]	microsomal CLint at 0.1 uM [4]	Fraction of prodrug converted to active form, Hypoxic 0.2% O2 (FaDu cell line)	Fraction of prodrug converted to active form, Oxic 5% O2 (FaDu cell line)	IC50 (DNA-PK)	Compound	EC50 [1, 5]	EC50 [1, 6]	EC50 [1, 7]
E (% remaining = 0-25%)	< 116 µL/min/mg	1 to 10 µM	E (% remaining = 0-25%)	> 116 µL/min/mg	A (A is 0.15 to 1)	C (C is 0.02 to 0.05)	0.01 to 0.15 µM	CC(c1cnc([N+](=O)[O-])n1C)N(c1cnc2cc(N3CCOCC3)nc(OC3CCC(Nc4ncccn4)CC3)c2c1)S(C)(=O)=O (stereo not shown) [LFA010, N-[1-(3-Methyl-2-nitro-imidazol-4-yl)ethyl]-N-[7-morpholino-5-[4-(pyrimidin-2-ylamino)cyclohexoxy]-1,6-naphthyridin-3-yl]methanesulfonamide]	0.01 to 0.5 µM	0.01 to 0.5 µM	1 to 10 µM
F (% remaining = 25-50%)	< 116 µL/min/mg	–	–	–	B (B is 0.05 to 0.15)	D (D is 0 to 0.02)	–	Cn1c(CN(c2cnc3cc(N4CCOCC4)nc(OC4CCC(Nc5ncc(C(F)(F)F)cn5)CC4)c3c2)S(C)(=O)=O)cnc1[N+](=O)[O-] (stereo not shown) [LFA023, N-[(3-Methyl-2-nitro-imidazol-4-yl)methyl]-N-[7-morpholino-5-[4-[[5-(trifluoromethyl)pyrimidin-2-yl]amino]cyclohexoxy]-1,6-naphthyridin-3-yl]methanesulfonamide]	0.5 to 1 µM	1 to 10 µM	1 to 10 µM
E (% remaining = 0-25%)	< 116 µL/min/mg	–	E (% remaining = 0-25%)	> 116 µL/min/mg	B (B is 0.05 to 0.15)	D (D is 0 to 0.02)	–	CC(c1cnc([N+](=O)[O-])n1C)N(c1cnc2cc(N3CCOCC3)nc(OC3CCC(Nc4ncc(C(F)(F)F)cn4)CC3)c2c1)S(C)(=O)=O (stereo not shown) [LFA024, N-[1-(3-Methyl-2-nitro-imidazol-4-yl)ethyl]-N-[7-morpholino-5-[4-[[5-(trifluoromethyl)pyrimidin-2-yl]amino]cyclohexoxy]-1,6-naphthyridin-3-yl]methanesulfonamide]	0.01 to 0.5 µM	1 to 10 µM	10 to 100 µM
E (% remaining = 0-25%)	> 116 µL/min/mg	–	–	–	B (B is 0.05 to 0.15)	D (D is 0 to 0.02)	–	Cn1c(CN(c2cnc3cc(N4CCOCC4)nc(OC4CCC(Nc5ncc(C#N)cn5)CC4)c3c2)S(C)(=O)=O)cnc1[N+](=O)[O-] (stereo not shown) [LFA026, N-[5-[4-[(5-Cyanopyrimidin-2-yl)amino]cyclohexoxy]-7-morpholino-1,6-naphthyridin-3-yl]-N-[(3-methyl-2-nitro-imidazol-4-yl)methyl]methanesulfonamide]	0.01 to 0.5 µM	1 to 10 µM	1 to 10 µM
E (% remaining = 0-25%)	> 116 µL/min/mg	–	E (% remaining = 0-25%)	> 116 µL/min/mg	B (B is 0.05 to 0.15)	C (C is 0.02 to 0.05)	–	CC(c1cnc([N+](=O)[O-])n1C)N(c1cnc2cc(N3CCOCC3)nc(OC3CCC(Nc4ncc(C#N)cn4)CC3)c2c1)S(C)(=O)=O (stereo not shown) [LFA027, N-[5-[4-[(5-Cyanopyrimidin-2-yl)amino]cyclohexoxy]-7-morpholino-1,6-naphthyridin-3-yl]-N-[1-(3-methyl-2-nitro-imidazol-4-yl)ethyl]methanesulfonamide]	0.01 to 0.5 µM	0.5 to 1 µM	1 to 10 µM
